The values below come from ChEMBL document CHEMBL4321865, “Discovery of Novel Inhibitors of LpxC Displaying Potent in Vitro Activity against Gram-Negative Bacteria” (J Med Chem, 2020).

≈ marks a conversion by molar mass, not a printed value. Some results are limits rather than exact numbers.

The term Cmax denotes the peak of the concentration-time curve. As usually defined, the CL/F is the apparent clearance, not corrected for the fraction that reaches the circulation. One may read the AUC(0-t) as the area under the concentration-time curve up to a stated or last time point. The low end stands for low exposure, the high end for high exposure. As usually defined, the logD is lipophilicity at a set pH, counting ionised and neutral species. Lower therefore signals lower lipophilicity. One may read the solubility as how much of the substance goes into solution per volume. Low readings indicate a poorly soluble substance, high ones a readily soluble substance. Broadly, the Tmax is the time at which the peak concentration occurs. The term ΔTm denotes the change in melting temperature against a reference sample.

For series [1], the system named is Pseudomonas aeruginosa. The experiment in a line: Antimicrobial activity against Pseudomonas aeruginosa PA2616 harboring delta mexAB-OprM mutant by broth microdilution method. The format is functional.
Series [2] is described as follows: Cmax in NMRI/ICR CD-1 mouse at 50 mg/kg, sc by LC-MS/MS analysis. As to conditions: in vivo. Set-up: dose 50 mg/kg, route subcutaneous. The format is ADME, organism-based.
The nature of series [3]: Free AUC (0 to 24 hrs) in NMRI/ICR CD-1 mouse at 75 mg/kg, sc by LC-MS/MS analysis. The format is ADME, organism-based. As to conditions: in vivo.
A short description of series [4]: Apparent clearance in NMRI/ICR CD-1 mouse at 75 mg/kg, sc by LC-MS/MS analysis. The note with it: in vivo. The class given is ADME, organism-based.
Series [5] relates to Mus musculus. The experiment in a line: Apparent unbound clearance in NMRI/ICR CD-1 mouse at 75 mg/kg, sc by LC-MS/MS analysis. The class given is ADME, organism-based. The note with it: in vivo.
For series [6] the following is noted: mouse, plasma, 1 µM.
Description: Protein binding in mouse plasma assessed as fraction unbound at 1 uM by equilibrium dialysis method
A short description of another series: in vivo. The note with it: NMRI/ICR CD-1, mouse, sc, 50 mg/kg.
A short description of series [7]: physchem. As to conditions: n-octanol/phosphate buffered saline, pH 7.4.
Description: n-Octanol/phosphate buffered saline partition coefficient, log D of the compound at pH 7.4 by LC-UV method
Series [8] is described as follows: physchem. The note with it: DMSO, pH 7.
Description: Solubility of the compound in DMSO at pH 7 incubated for 24 hrs by LC-UV method
A short description of series [9]: physchem. The note with it: DMSO, pH 9.
Description: Solubility of the compound in DMSO at pH 9 incubated for 24 hrs by LC-UV method
Series [10] has as its system Escherichia coli. The experiment in a line: microbe, parasite or virus in culture. As to conditions: ATCC 25922.
Description: Antibacterial activity against wild-type Escherichia coli ATCC 25922 by broth microdilution method
For the next series, the system named is Klebsiella pneumoniae. The experiment in a line: microbe, parasite or virus in culture. As to conditions: T 6474.
Series [11] concerns Pseudomonas aeruginosa. Description: microbe, parasite or virus in culture. The note with it: ATCC 27853.
Description: Antimicrobial activity against Pseudomonas aeruginosa ATCC 27853 by broth microdilution method
Series [12] concerns Pseudomonas aeruginosa. The experiment in a line: microbe, parasite or virus in culture. The note with it: PAO1.
Description: Antimicrobial activity against wild-type Pseudomonas aeruginosa PAO1 by broth microdilution method
The test system of series [13] is Escherichia coli. Description: Antibacterial activity against Escherichia coli infected in cyclophosphamide-induced NMRI/ICR CD-1 mouse model of neutropenic thigh infection assessed as reduction in thigh bacterial load at 50 mg/kg, sc measured after 22 hrs relative to control. The class given is functional.
The test system of series [14] is Escherichia coli. Description: Antibacterial activity against Escherichia coli infected in cyclophosphamide-induced NMRI/ICR CD-1 mouse model of neutropenic thigh infection assessed as reduction in thigh bacterial load at 150 mg/kg, sc measured after 22 hrs relative to control. The class given is functional.
Series [15] is described as follows: Apparent clearance in NMRI/ICR CD-1 mouse at 50 mg/kg, sc by LC-MS/MS analysis. The format is ADME, organism-based. The note with it: in vivo.
Series [16] deals with Mus musculus. Description: Apparent unbound clearance in NMRI/ICR CD-1 mouse at 50 mg/kg, sc by LC-MS/MS analysis. The class given is ADME, organism-based. As to conditions: in vivo.
Series [17] is described as follows: Tmax in NMRI/ICR CD-1 mouse at 50 mg/kg, sc by LC-MS/MS analysis. The class given is ADME, organism-based. The note with it: in vivo.
The test system of series [18] is Escherichia coli. The experiment in a line: Antibacterial activity against Escherichia coli infected in cyclophosphamide-induced NMRI/ICR CD-1 mouse model of neutropenic thigh infection assessed as reduction in thigh bacterial load at 450 mg/kg, sc administered as single dose measured after 22 hrs relative to control. The class given is functional.
The test system of series [19] is Escherichia coli. The experiment in a line: Antibacterial activity against Escherichia coli infected in cyclophosphamide-induced NMRI/ICR CD-1 mouse model of neutropenic thigh infection assessed as reduction in thigh bacterial load at 112.54 mg/kg, sc administered at 5.5 hrs interval for 4 times relative to control. The class given is functional.
In series [20] the test system is T1, UDP-3-O-acyl-N-acetylglucosamine deacetylase (Escherichia coli K-12), P0A725 [C125S].
T1 sequence (whole entry): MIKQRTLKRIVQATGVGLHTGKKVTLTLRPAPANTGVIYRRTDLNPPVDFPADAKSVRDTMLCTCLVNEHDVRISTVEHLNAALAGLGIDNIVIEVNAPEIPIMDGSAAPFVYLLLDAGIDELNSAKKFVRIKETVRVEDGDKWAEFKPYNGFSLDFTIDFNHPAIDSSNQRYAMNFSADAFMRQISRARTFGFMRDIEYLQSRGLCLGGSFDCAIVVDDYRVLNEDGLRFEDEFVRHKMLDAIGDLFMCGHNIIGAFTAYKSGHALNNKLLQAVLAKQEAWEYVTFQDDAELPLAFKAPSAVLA

Series [21] concerns T2, UDP-3-O-acyl-N-acetylglucosamine deacetylase (Pseudomonas aeruginosa (strain ATCC 15692 / PAO1 / 1C / PRS 101 / LMG12228)), P47205 [C40S].
T2 sequence (whole entry): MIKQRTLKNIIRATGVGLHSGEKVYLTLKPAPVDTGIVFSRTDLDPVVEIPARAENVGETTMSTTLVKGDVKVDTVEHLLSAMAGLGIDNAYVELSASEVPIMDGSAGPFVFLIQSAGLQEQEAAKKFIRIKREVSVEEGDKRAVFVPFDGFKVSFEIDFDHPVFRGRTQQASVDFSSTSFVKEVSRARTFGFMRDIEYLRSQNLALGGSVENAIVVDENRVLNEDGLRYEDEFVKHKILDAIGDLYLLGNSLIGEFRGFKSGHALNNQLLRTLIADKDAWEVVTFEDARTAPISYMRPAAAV

For series [22] the following is noted: mouse, in vivo, sc, 50 mg/kg.

Description for Klebsiella pneumoniae: Antibacterial activity against multi-drug resistant Klebsiella pneumoniae T 6474 by broth microdilution method

In the case of `COc1ccc(-c2ccn(CC[C@](C)(C(=O)NO)S(C)(=O)=O)c(=O)c2)c(F)c1`, the MIC in the series with Pseudomonas aeruginosa [1] was at most 0.06 µg/mL; in the series with Escherichia coli [10] it was at most 0.06 µg/mL; with Klebsiella pneumoniae, 0.25 µg/mL (≈ 0.606 µM); with Pseudomonas aeruginosa [11], 0.5 µg/mL (≈ 1.21 µM); against Pseudomonas aeruginosa [12], 0.25 to 0.5 µg/mL (≈ 0.606 to 1.21 µM). In series [2], this compound had a Cmax of 10300 ng/mL. In series [3], the fAUC was found to be 3620 ng·h/mL. The CL/F in series [4] came out at 72 mL/min/kg. In the series on Mus musculus [5], the CLu/F is 231 mL/min/kg. The Fu in series [6] was determined as 0.31%. The area under the curve AUC(0-t) at 24 h in the series “in vivo” turned out to be 11700 ng·h/mL. The logD in “physchem [7]” turned out to be 1.1. The values for the solubility at 24 h in “physchem [8]” and in the series “physchem [9]” were 130 µg/mL (≈ 315 µM) and 692 µg/mL (≈ 1680 µM), respectively.

As for `C[C@@](CCN1Cc2cc(C#CC#CC3(CO)CC3)cn2C1=O)(C(=O)NO)S(C)(=O)=O`, the “fold change (FC)” value in the series on Escherichia coli [13] is listed as 2.1; in the series on Escherichia coli [14], 0.8; in the series on Escherichia coli [18] it was 1; in the series on Escherichia coli [19], 1.5. Further, in [15], the CL/F came out at 25.1 mL/min/kg. Moreover, in the series with Mus musculus [16], the CLu/F turned out to be 295 mL/min/kg. In addition, in series [2], the Cmax came out at 20200 ng/mL. Also, the Tmax in series [17] was 30 min. For the same compound, the results for the ΔTm in [20] and in [21] were 9.9 °C and 12.5 °C, respectively. The compound also yielded a Fu in series [6] of 0.085%. Moreover, the fAUC in series [22] was found to be 2810 ng·h/mL. The compound also had an AUC(0-t) at 24 h in “in vivo” of 33000 ng·h/mL. Besides, the MIC against Escherichia coli [10] is 0.25 µg/mL (≈ 0.577 µM); in the series with Klebsiella pneumoniae, 1 µg/mL (≈ 2.31 µM); in the series on Pseudomonas aeruginosa [11] it was 0.5 µg/mL (≈ 1.15 µM); with Pseudomonas aeruginosa [12], 1 µg/mL (≈ 2.31 µM).
